This is an account of results in patent publication US20100227859A1, “TRICYCLIC COMPOUNDS AS MATRIX METALLOPROTEINASE INHIBITORS” (priority 2007, published 2010).

For the assay, the target named is purified human MMP-12 enzyme (Homo sapiens, UniProt P39900). As to the kind of experiment: MMP-12 FRET assay. Type of assay: biochemical. Particulars: substrate 20 μM, room temperature. The method, boiled down: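 Initial fluorescence rate (325/395 nm) of cleavage of MCA-Pro-Leu-Gly-Leu-Dpa(DNP)-Ala-Arg, 20 μM final, was followed for 30 min at room temperature after a 30 min enzyme–compound preincubation. Buffer: 50 mM HEPES pH 7.4, 100 mM NaCl, 5 mM CaCl2, 0.005% Brij-35, with 10% final DMSO. IC50 came from a Hill-type fit of rate versus inhibitor concentration.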
Chain of purified human MMP-12 enzyme (P39900 106-470): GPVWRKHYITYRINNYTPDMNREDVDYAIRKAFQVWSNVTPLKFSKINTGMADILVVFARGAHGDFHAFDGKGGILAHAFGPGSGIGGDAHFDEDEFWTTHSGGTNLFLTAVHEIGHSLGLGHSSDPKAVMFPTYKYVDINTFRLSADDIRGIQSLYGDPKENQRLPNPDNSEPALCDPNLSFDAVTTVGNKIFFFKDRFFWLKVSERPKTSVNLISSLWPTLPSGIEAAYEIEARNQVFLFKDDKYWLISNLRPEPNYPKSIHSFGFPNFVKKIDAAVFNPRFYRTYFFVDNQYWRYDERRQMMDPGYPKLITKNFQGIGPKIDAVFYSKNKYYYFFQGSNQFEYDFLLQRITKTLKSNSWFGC
One may read the IC50 as the concentration at which inhibition is half-maximal. Low values mean higher potency, high ones lower potency. `Cc1nc(-c2ccc3c(c2)oc2cc(S(=O)(=O)N[C@H](C(=O)O)C(C)C)ccc23)no1` [Compound 156, (S)-3-methyl-2-(7-(5-methyl-1,2,4-oxadiazol-3-yl)dibenzo[b,d]furan-3-sulfonamido)butanoic acid]: 6.9 nM corresponded to half-maximal inhibition (IC50).
Next, `CC(C)[C@H](NS(=O)(=O)c1ccc2c(c1)oc1ccc(-c3nc4ccccc4s3)cc12)C(=O)O` [Compound 151, (S)-2-(8-(benzo[d]thiazol-2-yl)dibenzo[b,d]furan-3-sulfonamido)-3-methylbutanoic acid]: below 1.5 nM; `CC(C)[C@H](NS(=O)(=O)c1ccc2c(c1)oc1ccc(-c3ncc(Cn4cccn4)s3)cc12)C(=O)O` [Compound 214, (S)-2-(8-(5-((1H-pyrazol-1-yl)methyl)thiazol-2-yl)dibenzo[b,d]furan-3-sulfonamido)-3-methylbutanoic acid]: 3.7 nM.
Next, `CC(C)Cc1ncc(-c2ccc3oc4cc(S(=O)(=O)N[C@H](C(=O)O)C(C)C)ccc4c3c2)s1` [Compound 248, (S)-2-(8-(2-isobutylthiazol-5-yl)dibenzo[b,d]furan-3-sulfonamido)-3-methylbutanoic acid]: below 1.5 nM; `CC(C)(C)c1nc(-c2ccc3oc4cc(S(=O)(=O)N[C@H](C(=O)O)C(C)(C)C)ccc4c3c2)no1` [Compound 257, (S)-2-(8-(5-tert-butyl-1,2,4-oxadiazol-3-yl)dibenzo[b,d]furan-3-sulfonamido)-3,3-dimethylbutanoic acid]: 9.1 nM; `CC(C)[C@H](NS(=O)(=O)c1ccc2c(c1)oc1ccc(-c3ccc4c(c3)C(C)(C)OC(=O)N4)cc12)C(=O)O` [Compound 4, (S)-2-(8-(4,4-dimethyl-2-oxo-2,4-dihydro-1H-benzo[d][1,3]oxazin-6-yl)dibenzo[b,d]furan-3-sulfonamido)-3-methylbutanoic acid]: 12.2 nM.
For `CC(=O)c1ccc(-c2ccc3oc4cc(S(=O)(=O)N[C@H](C(=O)O)C(C)C)ccc4c3c2)s1` [Compound 32, (S)-2-(8-(5-acetylthiophen-2-yl)dibenzo[b,d]furan-3-sulfonamido)-3-methylbutanoic acid], the IC50 is below 1.5 nM.
For the molecule `CC(C)[C@@H](NS(=O)(=O)c1ccc2oc3cc(-c4cc5ccccc5o4)ccc3c2c1)C(=O)O` [Compound 119, (R)-2-(7-(benzofuran-2-yl)dibenzo[b,d]furan-2-sulfonamido)-3-methylbutanoic acid], the IC50 was 8.3 nM.
Next, `Cc1nc(CC(C)C)sc1-c1ccc2oc3cc(S(=O)(=O)N[C@H](C(=O)O)C(C)C)ccc3c2c1` [Compound 204, (S)-2-(8-(2-isobutyl-4-methylthiazol-5-yl)dibenzo[b,d]furan-3-sulfonamido)-3-methylbutanoic acid]: 13 nM.
On to `CC(C)[C@H](NS(=O)(=O)c1ccc2c(c1)oc1ccc(C3CCCC3)cc12)C(=O)O` [Compound 71, (S)-2-(8-cyclopentyldibenzo[b,d]furan-3-sulfonamido)-3-methylbutanoic acid], for which the IC50 was below 1.5 nM.
Next, `CC(C)[C@H](NS(=O)(=O)c1ccc2c(c1)oc1ccc(-c3csc(Cl)n3)cc12)C(=O)O` [Compound 180, (S)-2-(8-(2-chlorothiazol-4-yl)dibenzo[b,d]furan-3-sulfonamido)-3-methylbutanoic acid]: below 1.5 nM; `CC(C)[C@H](NS(=O)(=O)c1ccc2c(c1)sc1ccc(/C=C/C3CCCCC3)cc12)C(=O)O` [Compound 58, (S,E)-2-(8-(2-cyclohexylvinyl)dibenzo[b,d]thiophene-3-sulfonamido)-3-methylbutanoic acid]: 18 nM; `CC(C)NC(=N)c1ccc2oc3cc(S(=O)(=O)N[C@H](C(=O)O)C(C)C)ccc3c2c1` [Compound 76, (S)-2-(8-(N-isopropylcarbamimidoyl)dibenzo[b,d]furan-3-sulfonamido)-3-methylbutanoic acid]: 18 nM.
For `CC(C)[C@H](NS(=O)(=O)c1ccc2c(c1)oc1ccc(C(=N)NO)cc12)C(=O)O` [Compound 82, (S)-2-(8-(N-hydroxycarbamimidoyl)dibenzo[b,d]furan-3-sulfonamido)-3-methylbutanoic acid], the IC50 was found to be 1.8 nM.
`CC(C)[C@H](NS(=O)(=O)c1ccc2c(c1)sc1ccc(-c3ccncc3)cc12)C(=O)O` [Compound 56, (S)-3-methyl-2-(8-(pyridin-4-yl)dibenzo[b,d]thiophene-3-sulfonamido)butanoic acid] yielded an IC50 of 8.4 nM.
In the case of `CC(C)[C@@H](NS(=O)(=O)c1ccc2oc3cc(-c4ccsc4)ccc3c2c1)C(=O)O` [Compound 97, (R)-3-methyl-2-(7-(thiophen-3-yl)dibenzo[b,d]furan-2-sulfonamido)butanoic acid], the IC50 is below 1.5 nM.
For the molecule `CCCc1ccc(-c2ccc3c(c2)oc2ccc(S(=O)(=O)N[C@@H](C(=O)O)C(C)C)cc23)s1` [Compound 243, (R)-3-methyl-2-(7-(5-propylthiophen-2-yl)dibenzo[b,d]furan-2-sulfonamido)butanoic acid], the IC50 was 1.5 nM.
In the case of `CC(C)[C@H](NS(=O)(=O)c1ccc2c(c1)oc1ccc(-c3nc4cc(F)c(F)cc4s3)cc12)C(=O)O` [Compound 220, (S)-2-(8-(5,6-difluorobenzo[d]thiazol-2-yl)dibenzo[b,d]furan-3-sulfonamido)-3-methylbutanoic acid], the IC50 was below 1.5 nM.
To `CC(=O)c1ccc(-c2ccc3sc4cc(S(=O)(=O)N[C@H](C(=O)O)C(C)C)ccc4c3c2)s1` [Compound 47, (S)-2-(8-(5-acetylthiophen-2-yl)dibenzo[b,d]thiophene-3-sulfonamido)-3-methylbutanoic acid] belongs 2.9 nM; to `CC(C)[C@H](NS(=O)(=O)c1ccc2c(c1)oc1ccc(-c3sc(Cl)cc3Cl)cc12)C(=O)O` [Compound 75, (S)-2-(8-(3,5-dichlorothiophen-2-yl)dibenzo[b,d]furan-3-sulfonamido)-3-methylbutanoic acid], below 1.5 nM; to `CC(C)[C@H](NS(=O)(=O)c1ccc2c(c1)sc1ccc(-c3cnn(Cc4ccccc4)c3)cc12)C(=O)O` [Compound 44, (S)-2-(8-(1-benzyl-1H-pyrazol-4-yl)dibenzo[b,d]thiophene-3-sulfonamido)-3-methylbutanoic acid], 65 nM.
To `CC(C)[C@@H](NS(=O)(=O)c1ccc2oc3cc(-c4cnn(C)c4)ccc3c2c1)C(=O)O` [Compound 117, (R)-3-methyl-2-(7-(1-methyl-1H-pyrazol-4-yl)dibenzo[b,d]furan-2-sulfonamido)butanoic acid] belongs 2.8 nM.
To `CC(C)[C@H](NS(=O)(=O)c1ccc2c(c1)oc1ccc(-c3ccc(Cl)nc3)cc12)C(=O)O` [Compound 64, (S)-2-(8-(6-chloropyridin-3-yl)dibenzo[b,d]furan-3-sulfonamido)-3-methylbutanoic acid] belongs below 1.5 nM; to `CC(C)[C@H](NS(=O)(=O)c1ccc2c(c1)oc1cc(-c3ccco3)ccc12)C(=O)O` [Compound 78, (S)-2-(7-(furan-2-yl)dibenzo[b,d]furan-3-sulfonamido)-3-methylbutanoic acid], below 1.5 nM.
As for `Cc1nc(-c2ccc(-c3ccc4oc5cc(S(=O)(=O)N[C@H](C(=O)O)C(C)C)ccc5c4c3)s2)no1` [Compound 199, (S)-3-methyl-2-(8-(5-(5-methyl-1,2,4-oxadiazol-3-yl)thiophen-2-yl)dibenzo[b,d]furan-3-sulfonamido)butanoic acid], the IC50 was below 1.5 nM.
Next, `COc1ccc2nc(-c3ccc4oc5cc(S(=O)(=O)N[C@H](C(=O)O)C(C)C)ccc5c4c3)sc2c1` [Compound 208, (S)-2-(8-(6-methoxybenzo[d]thiazol-2-yl)dibenzo[b,d]furan-3-sulfonamido)-3-methylbutanoic acid]: 2.7 nM; `C#Cc1ccc2oc3cc(S(=O)(=O)N[C@H](C(=O)O)C(C)C)ccc3c2c1` [Compound 303, (S)-2-(8-ethynyldibenzo[b,d]furan-3-sulfonamido)-3-methylbutanoic acid]: below 1.5 nM; `CC(C)[C@H](NS(=O)(=O)c1ccc2c(c1)oc1ccc(C(=N)N3CCCC3)cc12)C(=O)O` [Compound 127, (S)-2-(8-(imino(pyrrolidin-1-yl)methyl)dibenzo[b,d]furan-3-sulfonamido)-3-methylbutanoic acid]: 175 nM.
`CC(C)[C@@H](NS(=O)(=O)c1ccc2oc3cc(-c4cc5cc(F)ccc5[nH]4)ccc3c2c1)C(=O)O` [Compound 122, (R)-2-(7-(5-fluoro-1H-indol-2-yl)dibenzo[b,d]furan-2-sulfonamido)-3-methylbutanoic acid] showed an IC50 of 6.9 nM.
Next, `CC(C)[C@H](NS(=O)(=O)c1ccc2c(c1)sc1ccc(-c3ccsc3Cl)cc12)C(=O)O` [Compound 52, (S)-2-(8-(2-chlorothiophen-3-yl)dibenzo[b,d]thiophene-3-sulfonamido)-3-methylbutanoic acid]: 19 nM; `CC(C)[C@H](NS(=O)(=O)c1ccc2c(c1)sc1ccc(-c3ccc(-c4ccc(Cl)nc4)nc3)cc12)C(=O)O` [Compound 61, (S)-2-(8-(6′-chloro-2,3′-bipyridin-5-yl)dibenzo[b,d]thiophene-3-sulfonamido)-3-methylbutanoic acid]: 276 nM; `CC(C)[C@H](NS(=O)(=O)c1ccc2c(c1)oc1cc(-c3noc(-c4ccc(F)cc4)n3)ccc12)C(=O)O` [Compound 188, (S)-2-(7-(5-(4-fluorophenyl)-1,2,4-oxadiazol-3-yl)dibenzo[b,d]furan-3-sulfonamido)-3-methylbutanoic acid]: 8.6 nM.
With `CC(C)[C@H](NS(=O)(=O)c1ccc2c(c1)oc1cc(-c3ccoc3)ccc12)C(=O)O` [Compound 79, (S)-2-(7-(furan-3-yl)dibenzo[b,d]furan-3-sulfonamido)-3-methylbutanoic acid], the IC50 is below 1.5 nM.
